These results are taken from ChEMBL document CHEMBL1201862, “PubChem BioAssay data set” (2004).

Test systems include UACC-257; HOP-62; COLO 205; NCI-H522; BT-549; ACHN; SF-539; OVCAR-8; SK-OV-3; RXF 393; IGROV-1; MDA-N; U-251; HCT-15; MDA-MB-231; OVCAR-3; SK-MEL-28; SNB-75; SK-MEL-5; NCI-H226.
Common to all, as to test: NCI tumour cell line growth inhibition, 48 h

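Protocol summary: plate cells (96-well), add compound at 5 concentrations, incubate 48 h, interpolate endpoints linearly. At the GI50, growth is halved.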 The source made the active and inactive calls. Cut-off read from the data, not from the text of the source: active = GI50 up to about 1.1 µM and inactive = higher.

As to `N#Cc1nc(C#N)c(N)[nH]1`, the GI50 with UACC-257, with HOP-62, in the assay with COLO 205, with NCI-H522, in the assay with BT-549 and in the assay on ACHN was > 100 µM (inactive) throughout. Moreover, the GI50 in the assay with SF-539, in the assay with OVCAR-8, in the assay with SK-OV-3, in the assay on RXF 393, in the assay with IGROV-1 and in the assay on MDA-N was > 100 µM (inactive) each time. Besides, the GI50 in the assay on U-251 was > 100 µM (inactive); with HCT-15, > 100 µM; with MDA-MB-231 it was > 100 µM (inactive); in the assay with OVCAR-3, > 100 µM (inactive); with SK-MEL-28, > 100 µM (inactive); with SNB-75 it was > 100 µM (inactive). Further, the GI50 in the assay on SK-MEL-5 and with NCI-H226 was > 100 µM (inactive) in each case.

`O=C(NN1CCCCC1)c1cc2cc(CCl)ccc2oc1=O`: the GI50 in the assay on UACC-257 is 21.6 µM (inactive); in the assay with HOP-62, 19.4 µM (inactive); in the assay with COLO 205 it was 17.9 µM (inactive); with NCI-H522, 8.75 µM (inactive); in the assay on BT-549 it was 19.3 µM (inactive); in the assay on ACHN it was 44.5 µM (inactive). Besides, the GI50 in the assay on SF-539 was 27.4 µM (inactive); in the assay on OVCAR-8, 22.1 µM (inactive); in the assay with SK-OV-3 it was 21.9 µM (inactive); with RXF 393 it was 18.5 µM (inactive); in the assay with IGROV-1, 19.4 µM (inactive); with MDA-N it was 15.7 µM (inactive). The GI50 in the assay with U-251 was 16.9 µM (inactive); in the assay on HCT-15, 17.7 µM; in the assay on MDA-MB-231, 20.6 µM (inactive); in the assay with OVCAR-3 it was 20.4 µM (inactive); in the assay with SK-MEL-28, 29.3 µM (inactive); in the assay with SNB-75, 18.6 µM (inactive). The GI50 in the assay on SK-MEL-5 is 17.7 µM (inactive); with NCI-H226, 20.6 µM (inactive).

For `CCOC(=O)/C=C(\C(=O)OCC)n1cc(C)c(=O)n(Cc2cn(CCCCOC(C)=O)nn2)c1=O`, the GI50 with UACC-257 was 16.1 µM (inactive); in the assay with HOP-62, 18.4 µM (inactive); in the assay on COLO 205 it was 2.98 µM (inactive); with NCI-H522 it was 1.41 µM (inactive); in the assay on BT-549, 10.5 µM (inactive); with ACHN it was 4.28 µM (inactive). Moreover, the GI50 is 1.95 µM (inactive) in the assay with SF-539; 8.02 µM (inactive) in the assay on OVCAR-8; 32.4 µM (inactive) in the assay with SK-OV-3; 1.48 µM (inactive) in the assay with RXF 393; 13.6 µM (inactive) with IGROV-1; 20.7 µM (inactive) in the assay with MDA-N. In addition, the GI50 is 15.1 µM (inactive) in the assay on U-251; 6.37 µM in the assay with HCT-15; 15.7 µM (inactive) in the assay with MDA-MB-231; 13.3 µM (inactive) with OVCAR-3; 11.5 µM (inactive) in the assay on SK-MEL-28; 15.7 µM (inactive) with SNB-75. Moreover, the GI50 with SK-MEL-5 was 17.1 µM (inactive); in the assay with NCI-H226 it was 11.3 µM (inactive).

Take `O=C(O)C(C1NCCS1)N1C(=O)c2ccccc2C1=O` (stereo not given): the GI50 in the assay on UACC-257, in the assay with HOP-62, in the assay with COLO 205, with NCI-H522, in the assay with BT-549 and in the assay with ACHN was > 100 µM (inactive) throughout. The GI50 in the assay with SF-539, with OVCAR-8, with SK-OV-3, with RXF 393, with IGROV-1 and in the assay on MDA-N was > 100 µM (inactive) in each case. The GI50 with U-251 is > 100 µM (inactive); with HCT-15, > 100 µM; with MDA-MB-231, > 100 µM (inactive); with OVCAR-3 it was > 100 µM (inactive); in the assay with SK-MEL-28, > 100 µM (inactive); in the assay on SNB-75, > 100 µM (inactive). Besides, the GI50 in the assay on SK-MEL-5 and in the assay with NCI-H226 was > 100 µM (inactive) throughout.
